Where two headings read alike, the source gives them in different places.
What was measured:
PrtP [1] = assay: proteinase extract of BGMN1-501 cells in 0.1 mol/L sodium phosphate buffer (NaPi, pH 7); details: Lactococcus lactis subsp. lactis BGMN1-501, up to 20 h
PrtP [2] = assay: culture of Lactococcus lactis subsp. lactis BGMN1-501 in chemically defined growth medium (CDM) with addition of 0.5% casitone; cell-free supernatant; details: Lactococcus lactis subsp. lactis BGMN1-501, 30°C, up to 16 h
[3] = tested on: Lactococcus lactis subsp. lactis BGMN1-596; assay: Spot-on-lawn bacteriocin activity assay; type: cell-based; details: sensitive strain BGMN1-596, 30°C overnight
Protocol: The activity of HPLC-obtained fractions and of chemically synthesized bacteriocin was evaluated by spot-on-lawn assays. Soft GM17 agar (0.75%, w/v) containing sensitive strain was overlaid onto thin GM17 agar plates. After soft agar solidified, 10 μL of sample was spotted and plates were incubated at 30°C overnight. Clear zones of growth inhibition in the spots were used as positive signals. Lactococcus lactis subsp. lactis BGMN1-596 was used in all tests as sensitive strain.

proteinase PrtP [4] = type: in vitro ADME, Lactococcus lactis subsp. lactis BGMN1-501
Protocol: Bacteriocin activity of BGMN1-501, as well as of recombinantly produced bacteriocin was evaluated by an agar-well diffusion test ([Lozo et al., 2004]). The activity of HPLC-obtained fractions and of chemically synthesized bacteriocin was evaluated by spot-on-lawn assays. Soft GM17 agar (0.75%, w/v) containing sensitive strain was overlaid onto thin GM17 agar plates. After soft agar solidified, 10 μL of sample was spotted and plates were incubated at 30°C overnight. Clear zones of growth inhibition in the spots were used as positive signals. Lactococcus lactis subsp. lactis BGMN1-596 was used in all tests as sensitive strain. Proteinase extract was prepared as following: BGMN1-501 was grown on milk citrate agar plates, collected and re-suspended in 0.1 mol/L sodium phosphate buffer (NaPi, pH 7), incubated at room temperature for 30 min, pelleted by centrifugation and supernatants were collected prior to reactions. In vitro testing of effect of proteinase extract on bacteriocin activity was done as previously described ([Vukotic et al., 2015]), except that recombinant bacteriocins were used as substrates in the reactions.

proteinase PrtP [5] = type: in vitro ADME, Lactococcus lactis subsp. lactis BGMN1-501; remark: listed apart in the source
Protocol: For the purification and mass spectrometric analysis of the bacteriocin in Lactococcus lactis subsp. lactis BGMN1-501, the strain was grown at 30°C for 16 h in 500 mL of chemically defined growth medium (CDM)with addition of 0.5% casitone (Difco Laboratories, Becton Dickinson and Company, Franklin Lakes, NJ, United States). The bacteriocin was purified following the protocol of [Mirkovic et al. (2016)]. Briefly, the cells were removed by centrifugation (4,500 × g for 30 min at 4°C), while the supernatant was saturated up to 40% with ammonium sulfate, and precipitated with stirring for 2 h at 4°C. The precipitate was collected by centrifugation (10,000 × g for 30 min at 4°C) and then dissolved in 5 mL of Milli-Q water containing 0.1% trifluoroacetic acid. The bacteriocin was further purified using reverse-phase high-performance liquid chromatography (HPLC). […] The chromatography was monitored by measuring absorbance at 215 nm. […] Both recombinant peptides and the reaction mixtures of LcnB and PrtP were analyzed using the same reverse-phase chromatography as used for bacteriocin purification (see Section “Bacteriocin LcnB Purification From Lactococcus lactis subsp. lactis BGMN1-501”).

BGMN1-596 = assay: Glucose-uptake inhibition assay (growth of BGMN1-596 in GM17); type: cell-based, Lactococcus lactis subsp. lactis; details: chemically synthetized LcnB^∗, 0–1,000 μg/mL (highest concentration), BGMN1-596 5% inoculum in GM17, OD 600 nm over 6 h, triplicate
Protocol: To test whether truncated peptide can interfere with glucose import, growth of BGMN1-596 in GM17 with added LcnB^∗ was monitored. Fresh overnight culture, grown in GM17, was inoculated at 5% to fresh media, and saturated with increased concentrations (0–1,000 μg/mL) of chemically synthetized LcnB^∗. As a control, the same inoculum was made in media without glucose. Bacterial growth was monitored in microtitar plates by OD measurement at 600 nm at different time points for 6h. The assay was done in triplicate.

[6] = tested on: LcnB receptor on sensitive BGMN1-596 cells (man-PTS); assay: Bacteriocin competition assay; type: cell-based, Lactococcus lactis subsp. lactis; details: 10 μL of 62.5–1,000 μg/mL LcnB^∗ adsorbed 30 min at room temperature, then 50 μL BGMN1-501 culture, overnight 30°C
Protocol: The possibility of truncated peptide LcnB^∗ to compete with wild type LcnB for binding to its receptor molecule was tested in bacteriocin competition assay. Bacteriocin assay was prepared, as explained above. Before addition of bacteriocin producer, 10 μL of increasing concentrations (62.5–1,000 μg/mL) of LcnB^∗ was added to the wells made in soft agar and left for 30 min at room temperature to be completely adsorbed. After that, 50 μL of fresh BGMN1-501 culture was added to the wells, and incubated overnight at 30°C to produce growth inhibition zones.

| Sequence | cleaved bond (PrtP [1]) | cleaved bond (PrtP [2]) | antimicrobial activity (growth inhibition zone) ([3]; chemically synthesized peptide (Biomatik), 10 μL spotted, up to 1 mg/mL) | antimicrobial activity (growth inhibition zone) ([3]; recombinant peptide (pMAL system, E. coli ER2523), 50–500 μg/mL) | bacteriocin activity after incubation with PrtP extract (proteinase PrtP [4]) | bacteriocin activity after incubation with PrtP extract (proteinase PrtP [4]; pH 7) | PrtP cleavage site in the peptide (proteinase PrtP [5]) | amount of peptide left after PrtP hydrolysis (proteinase PrtP [5]) | effect on bacterial growth (interference with glucose import) (BGMN1-596) | effect of pretreatment on bacteriocin activity of wild type LcnB (competition for the receptor) [6] |
| --- | --- | --- | --- | --- | --- | --- | --- | --- | --- | --- |
| SLQYVMSAGPYTWYKDTRTGKTICKQTIDTASYTFGVMAEGWGKTFH | methionine6-serine7, major, 3 h | methionine6-serine7 |  |  |  |  |  |  |  |  |
| SLQYVMSAGPYTWYKDTRTGKTICKQTIDTASYTFGVMAEGWGKTFH [LcnB, bacteriocin of Lactococcus lactis subsp. lactis BGMN1-501, mature peptide, produced recombinantly in E. coli ER2523] |  |  | inactive | strong antimicrobial activity | no activity could be detected | reduced the bacteriocin activity | between sixth and seventh amino acid | drastically reduced | did not alter bacterial growth | did not influence the latter bacteriocin activity of wild type molecule |

Source: article PMC6491934 (Frontiers in Microbiology, 2019)
